Assay results as given in patent US20230233470A1, “Formulations” (ViiV Healthcare Company, priority 2020, published 2023).

What was measured:
[1] = Dissolution (% released), USP <711> and Ph. Eur. 2.9.3; format: physicochemical; conditions: active released from Triumeq Dispersible Bilayer Tablet; Q = 75% at 60 minutes
[2] = Relative bioavailability: Trii Dispersible tablet (dispersed or direct to mouth) vs adult TRIUMEQ tablet; format: in vivo; conditions: for differences in exposure: dispersed or direct to mouth vs. the IR tablet
[3] = Initial relative bioavailability PK study: Triumeq bilayer tablets dispersed in Contrex or purified water vs 4 x 10 mg DTG tablet + Kivexa; format: in vivo; conditions: for differences in exposure across all 5 arms: Treatments A-E; for AUC0-inf (h*ug/mL) Ratio / Cmax (ug/mL) Ratio: DTG; for impact of DTG solubility on DTG levels in plasma / PK: solubility range studied 16-70%
Experimental: Treatment (TRT) A: Reference 4×10 mg DTG tablet+Kivexa (ABC 600 mg/3TC 300 mg)
(§1) Treatment B-E: Triumeq bilayer tablets—4 tablets (10 mg DTG/ABC 150 mg/3TC 75 mg) dispersed in high mineral content water (Contrex)* or purified water.
(§2) *Contrex water contains a very high level of minerals including calcium, purified water is mineral free.

[4] = Estimate of DTG solubility in the dispersion; format: physicochemical; conditions: for solubility when dispersed: Triumeq bilayer tablets dispersed in water
Experimental: as §1, §2

[5] = B vs A: bi-layer tablet in Contrex water, immediate, vs 4 × 10 mg tablet + Kivexa
[6] = C vs A: bi-layer tablet in Contrex water, 30 mins, vs control
[7] = D vs A: bi-layer tablet in purified water, immediate, vs control
[8] = E vs A: bi-layer tablet in purified water, 30 mins, vs control

## Nc1nc(NC2CC2)c2ncn([C@H]3C=C[C@@H](CO)C3)c2n1 [Abacavir, (1S,4R-4-[2-amino-6-cyclopropylamino)-9H-purin-9-yl]-2-cyclopentene-1-methanol hemisulfate]
[1]
  Dissolution (% released): 101 (99-104) %
[2]
  differences in exposure: No differences in exposure
[3]
  differences in exposure across all 5 arms: no differences in exposure
[4]
  solubility when dispersed: fully soluble

## C[C@@H]1CCO[C@H]2Cn3cc(C(=O)NCc4ccc(F)cc4F)c(=O)c(O)c3C(=O)N12 [Dolutegravir, (4R,12aS)-N-[(2,4-difluorophenyl)methyl]-7-hydroxy-4-methyl-6,8-dioxo-3,4,12,12a-tetrahydro-2H-pyrido[5,6]pyrazino[2,6-b][1,3]oxazine-9-carboxamide]
[1]
  Dissolution (% released): 91 (87-95) %
[2]; dosed as dispersion vs adult immediate release tablet
  exposure, fold: ~1.6 ×
[2]; dosed direct to mouth vs adult immediate release tablet
  exposure, fold: ~1.25 ×
[3]; [5]
  AUC0-inf (h*ug/mL) Ratio: 1.56
  Cmax (ug/mL) Ratio: 1.59
[3]; [6]
  AUC0-inf (h*ug/mL) Ratio: 1.53
  Cmax (ug/mL) Ratio: 1.56
[3]; [7]
  AUC0-inf (h*ug/mL) Ratio: 1.58
  Cmax (ug/mL) Ratio: 1.56
[3]; [8]
  AUC0-inf (h*ug/mL) Ratio: 1.54
  Cmax (ug/mL) Ratio: 1.58
[3]; bilayer tablets dispersed (B-E) vs reference 4×10 mg DTG tablet + Kivexa
  exposure compared to the reference, fold: ~1.6 ×
[3]
  impact of DTG solubility on DTG levels in plasma / PK: no impact on PK
[3]; listed as DTG
  impact of DTG solubility on DTG levels in plasma / PK: does not impact
[4]; Treatment B: Bi-layer tablet, Contrex water (Ca++) plus flavour and sweetener, dispersion time immediate
  Estimate of DTG solubility: Approx. 45% DTG
[4]; Treatment C: Bi-layer tablet, Contrex water (Ca++) plus flavour and sweetener, dispersion time 30 mins
  Estimate of DTG solubility: Approx. 45% DTG
[4]; Treatment D: Bi-layer tablet, purified water plus flavour and sweetener, dispersion time immediate
  Estimate of DTG solubility: Approx. 70% DTG
[4]; Treatment E: Bi-layer tablet, purified water plus flavour and sweetener, dispersion time 30 mins
  Estimate of DTG solubility: Approx. 16% DTG

## Nc1ccn([C@@H]2CS[C@H](CO)O2)c(=O)n1 [Lamivudine, 2′,3′-dideoxy-3′-thiacytidine]
[1]
  Dissolution (% released): 99 (92-106) %
[2]
  differences in exposure: No differences in exposure
[3]
  differences in exposure across all 5 arms: no differences in exposure
[4]
  solubility when dispersed: fully soluble
